“And” between values parts separate entries of the source, which are not always exact repeats. Equal entries are not always repeated. Where two headings read alike, the source gives them in different places.
Experiments:
[1] = system: patients with advanced cancer; experiment: Phase I study CXR1002-001: plasma HDL-C and LDL-C; assay type: in vivo, human; settings: 6 weeks of treatment, % baseline
Excerpt: Individual patient raw data was captured and represented in graphs as % change from baseline (screening). […] Data represents either mean±SEM values or median, range+individual data points.

BxPc3 = experiment: ATP depletion cytotoxicity assay 48 hr; assay type: cell-based, human
Experimental: (§1) Following exposure to Test Items, the CellTitre-Glo Luminescent Cell Viability Assay to measure ATP content was performed according to the manufacturer's detailed instructions (Promega Corporation, Technical Bulletin No. 288, and Cell notes, Issue 10, 2004).
Cells were plated at the optimal plating density for that cell line in 96-well plates and allowed to attach overnight. […] Cells were exposed to these compounds in Roswell Park Memorial Institute (RPMI) medium containing 10% Foetal Calf Serum (FCS) and 2 mM Glutamine at 37° C. and 5% CO2 for 48 hours. There were 3 replicates for each test item concentration.
(§2) Following exposure to Test Items, the CellTitre-Glo Luminescent Cell Viability Assay to measure ATP content will be performed according to the manufacturer's detailed instructions (Promega Corporation, Technical Bulletin No. 288, and Cell notes, Issue 10, 2004).

[2] = system: panel of human tumour-derived cell lines; experiment: BrdU incorporation (cell proliferation) in the SRB cell line panel; assay type: cell-based; settings: 48 hrs
Hep3B = experiment: SRB cytotoxicity assay 48 hr; assay type: cell-based, human; settings: read-out: IC50 Values After 48 Hrs Exposure
Experimental: (§3) The SRB assay was performed according to the method specified by the NIC/NIH. […] Assay replicates were independent in time and up to 4 replicates were performed per cell line.

HT-29 = experiment: SRB cytotoxicity assay 48 hr; assay type: cell-based, human; settings: read-out: IC50 Values After 48 Hrs Exposure
Experimental: as §3

Canine Hepatocytes = experiment: ATP depletion cytotoxicity assay 48 hr; assay type: cell-based; settings: Canis lupus familiaris, Hepatocyte, Study CXR0798, read-out: IC50 1
Experimental: as §3

PC3 [3] = experiment: SRB cytotoxicity assay 48 hr; assay type: cell-based, human; settings: read-out: IC50 Values After 48 Hrs Exposure
Experimental: as §3

PC3 [4] = experiment: ATP depletion cytotoxicity assay 48 hr; assay type: cell-based, human
Experimental: Assay replicates were independent in time and up to 4 replicates were performed per cell line.
Cells were plated at the optimal plating density for that cell line in 96-well plates and allowed to attach overnight. The next day, the medium was removed and replaced with fresh medium containing the dose ranges of test items. […] There were 3 replicates for each test item concentration.
as §1
Cells were plated at the optimal plating density for that cell line in 96-well plates and allowed to attach overnight. The next day, cells were pre-treated with the inhibitors UO126 or LY294002 (see Tables 18 & 20) for 2 hrs, the medium was removed and replaced with fresh medium containing the appropriate dose of the test item. […] Cells were exposed to these compounds in Roswell Park Memorial Institute (RPMI) medium containing 10% Foetal Calf Serum (FCS) and 2 mM Glutamine at 37° C. and 5% CO2 for 48 hours. There were 3 replicates for each test item concentration.
as §2

PANC-1 cells = experiment: Western blot of PCNA and cleaved PARP in PANC-1 cells; assay type: cell-based, human; settings: 450 μM, 24 hrs
Experimental: PCNA is a marker for cell proliferation and cleaved PARP is representative of caspase cleavage and apoptosis. […] Western blot analysis was performed with increasing amounts of protein, ranging between 2 and 20 μg (lanes 1-8). Positive control protein was derived from MCF7 cells (PCNA blot, lane 9) or from HeLa cells treated with staurosporine for 3 hours (Cleaved PARP blot, lanes 9, 10). Levels of total β-Actin are shown as a control for protein loading.
Cells respond to the accumulation of unfolded proteins in the ER by a rescue process called the unfolded protein response (UPR). However, if the unfolded protein accumulation is persistent and the stress cannot be relieved, UPR signalling switches from prosurvival to proapoptotic (Kim (2006)), (Szegezdi (2006)), usually involving processing of caspases (Chang (2006)). Consistent with this hypothesis, CXR1002-treated PANC-1 cells show reduced proliferation and cleavage of the caspase substrate poly-ADP ribose polymerase (PARP) (FIG. 2) in PANC-1 cells.

HT1080 = experiment: ATP depletion cytotoxicity assay 48 hr; assay type: cell-based; settings: Homo sapiens, HT-1080, Study CXR0798, read-out: IC50 1
Experimental: as §3

In the case of `O=C(O)C(F)(F)C(F)(F)C(F)(F)C(F)(F)C(F)(F)C(F)(F)C(F)(F)F` [CXR1002], the “effect on plasma HDL-C” value [1] is reported as “remains unchanged”, the “effect on plasma LDL-C” value [1] is reported as “lowering effect” and the IC50 (BxPc3; ATP depletion, 48 hrs, read-out: IC50 1-4 (independent replicates)) is reported as 350 µM and 400 µM. The IC50 (BxPc3; Homo sapiens, BXPC-3, 48 h, ATP depletion, 48 hrs, read-out: IC50 1-4 (independent replicates)) was 370 µM, the IC50 (BxPc3; Homo sapiens, BXPC-3, 48 h, ATP depletion, 48 hrs, read-out: IC50 Mean) was 373 µM and the IC50 (BxPc3; Homo sapiens, BXPC-3, 48 h, Example 7, 48 hour, CXR1002 0-1 mM, U0126 fixed 10 μM where combined, read-out: IC50) was 381 µM. The BrdU incorporation ([2]; 10 μM) was “No marked effects”, the BrdU incorporation ([2]; 30 μM) was “variable” and the BrdU incorporation ([2]; 300 μM, all but one of the cell lines) was “Significant suppression of BrdU incorporation”. It also gave an IC50 (Hep3B) of 215 ± 28.3 µM, an IC50 (HT-29) of 342 ± 10.6 µM and an IC50 (Canine Hepatocytes) of 240 µM. It also gave an IC50 (PC3 [3]) of 272 ± 40.7 µM, an IC50 (PC3 [4]; Homo sapiens, PC-3, 48 h, read-out: IC50 1-4 (independent replicates)) of 650 µM and an IC50 (PC3 [4]; Homo sapiens, PC-3, 48 h, read-out: IC50 Mean) of 642 µM. The IC50 (PC3 [4]; read-out: IC50 1-4 (independent replicates)) was 625 µM, the “PCNA protein level (cell proliferation marker)” value (PANC-1 cells) was “reduced PCNA levels” and the “cleaved PARP protein level (apoptosis marker)” value (PANC-1 cells) was “increased cleaved PARP”. For the same compound, the IC50 (HT1080) was > 1000 µM.

Source: US20130029928A1 (priority 2010, published 2013)
